Assay results published in patent publication US11235976B2, “Nanocarbon-iron composite system as well as composition, preparation method and use thereof” (Chongqing Lummy Pharmaceutical Co., LTD, priority 2017, dated 2022).

Experiments:
[1] = tested on: SKOV3 ovarian cancer cells; experiment: Cell experiment, cell survival rate; assay type: cell-based; settings: iron preparation alone 13.65 μg/mL, 48 h
Protocol: (§1) Cells growing in a log phase are collected, the concentration of the cell suspension is adjusted, 100 μL of cell suspension is added to each well and the cells are plated (edge wells are filled with sterile PBS) at a density of 1×10^3-10^4 cells/well. The cells are incubated for 24 hours at 37° C. under the condition of 5% CO2, a nanocarbon-iron solution having a concentration gradient (nanocarbon content: 125, 62.5, 15.63 and 3.91 μg/mL; and ferric ion content: 13.65, 6.83, 1.71 and 0.43 μg/mL) is added, and three sub-wells are set. Then the cells are incubated for 48 hours at 37° C. under the condition of 5% CO2. 10 μL of CCK8 solution is added to each well and then the cells are continuously incubated for 2 hours. The absorbance of each well is measured at OD=450 nm with the microplate reader. In addition, a negative control group, nanocarbon control groups having the same concentration and iron preparation control groups having the same concentration are set.
as §1, with “and 1” for “100”, “of a 6-well plate” for “and the cells are plated (edge wells are filled with sterile PBS)”, “3×10^4” for “1×10^3-10^4”, “1.71,” for “1.71 and”, “The” for “10 μL of CCK8 solution is added to each well and then the”, “trypsinized and counted.” for “continuously incubated for 2 hours. The absorbance of each well is measured at OD=450 nm with the microplate reader.”

[2] = tested on: SMMC7721 liver cancer cells; experiment: Cell experiment, cell survival rate; assay type: cell-based; settings: SMMC-7721, 48 h
Protocol: as §1
as §1, with “and 1” for “100”, “of a 6-well plate” for “and the cells are plated (edge wells are filled with sterile PBS)”, “3×10^4” for “1×10^3-10^4”, “1.71,” for “1.71 and”, “The” for “10 μL of CCK8 solution is added to each well and then the”, “trypsinized and counted.” for “continuously incubated for 2 hours. The absorbance of each well is measured at OD=450 nm with the microplate reader.”

[3] = tested on: TPC-1 thyroid cancer cells; experiment: Cell experiment, cell survival rate; assay type: cell-based; settings: 48 h
Protocol: as §1
as §1, with “and 1” for “100”, “of a 6-well plate” for “and the cells are plated (edge wells are filled with sterile PBS)”, “3×10^4” for “1×10^3-10^4”, “1.71,” for “1.71 and”, “The” for “10 μL of CCK8 solution is added to each well and then the”, “trypsinized and counted.” for “continuously incubated for 2 hours. The absorbance of each well is measured at OD=450 nm with the microplate reader.”

[4] = tested on: murine liver cancer H22 cells; experiment: Cell experiment, cell survival rate; assay type: cell-based; settings: 48 h
Protocol: as §1
as §1, with “and 1” for “100”, “of a 6-well plate” for “and the cells are plated (edge wells are filled with sterile PBS)”, “3×10^4” for “1×10^3-10^4”, “1.71,” for “1.71 and”, “The” for “10 μL of CCK8 solution is added to each well and then the”, “trypsinized and counted.” for “continuously incubated for 2 hours. The absorbance of each well is measured at OD=450 nm with the microplate reader.”

[5] = tested on: subcutaneous transplantation tumors of 9 types of cancer cells; experiment: Tumor growth inhibition experiments, subcutaneous transplantation tumors; assay type: in vivo, mice; settings: FIGS. 4-39
Protocol: Cells growing in a log phase are collected, the concentration of the cell suspension is adjusted to 3×10^7 cells/mL, and the cell suspension is inoculated subcutaneously into the right upper extremities of nude mice at the inoculation dosage of 0.1 mL (about 3×10^6 cells) per mouse. When the average tumor volume of the inoculated mice reaches 100 mm^3, the tumor-bearing mice are randomly divided into the following groups (8 nude mice per group): a negative control group (0.9% sodium chloride injection), a nanocarbon control group, an iron preparation control group, a nanocarbon-iron suspension experimental group, and a cis-platinum control group (intraperitoneal injection at the dosage of 5 mg/kg). The above various drugs are injected into the tumors. The tumor volume changes are recorded, and the formula for calculating the volume is Volume=(length×the square of width)/2.
Milky white and thick ascites is extracted from the H22 tumor-bearing mice, the concentration of the cell suspension is adjusted to be 3×10^7 cells/mL, 0.1 mL of cell suspension (about 3×10^6 cells) is inoculated subcutaneously into the right upper extremity of each of Kunming mice. When the average tumor volume of the inoculated mice reaches 100 mm^3, the tumor-bearing mice are randomly divided into the following groups (8 mice per group): a negative control group (0.9% sodium chloride injection), a nanocarbon control group, an iron preparation control group, a nanocarbon-iron suspension experimental group, and a cis-platinum control group (intraperitoneal injection at the dosage of 5 mg/kg). The above various drugs are injected into the tumors. The tumor volume changes are recorded, and the formula for calculating the volume is Volume=(length×the square of width)/2.

[6] = tested on: H22 metastatic lymph nodes; experiment: Lymph node metastasis inhibition experiment; assay type: in vivo, Kunming mouse; settings: popliteal lymph nodes
Protocol: (§2) Milky white and thick ascites is extracted from the H22 tumor-bearing mice, the concentration is adjusted to be 3×10^7 cells/mL, 0.05 mL of cell suspension (about 1.5×10^6 cells) is inoculated subcutaneously into the left hind foot pads of each Kunming mouse, and thus a lymph node metastasis mouse model is obtained. The mice are treated when the diameter of the tumor reaches 6-8 mm and there is no ulcer and necrosis. The mice are randomly divided into four groups (10 mice per group): a negative control group (0.9% sodium chloride injection), a nanocarbon control group, an iron preparation control group and a nanocarbon-iron suspension experimental group. 10 days after inoculation, the mice are killed, and popliteal lymph nodes are collected, weighed and fixed for pathological examination.

[7] = tested on: A549 metastatic lymph nodes; experiment: Lymph node metastasis inhibition experiment; assay type: in vivo, nude mouse; settings: popliteal lymph nodes
Protocol: as §2, with “Cells growing in a log phase are collected,” for “Milky white and thick ascites is extracted from the H22 tumor-bearing mice,”, “concentration of the cell suspension” for “concentration”, “to” for “to be”, “the” for “0.05 mL of”, “suspension” for “suspension (about 1.5×10^6 cells)”, “nude mouse at the inoculation volume of 0.05 mL (about 1.5×10^6 cells)” for “Kunming mouse,”

[8] = tested on: HCT116 metastatic lymph nodes; experiment: Lymph node metastasis inhibition experiment; assay type: in vivo, nude mouse; settings: popliteal lymph nodes
Protocol: as §2, with “Cells growing in a log phase are collected,” for “Milky white and thick ascites is extracted from the H22 tumor-bearing mice,”, “concentration of the cell suspension” for “concentration”, “to” for “to be”, “the” for “0.05 mL of”, “suspension” for “suspension (about 1.5×10^6 cells)”, “nude mouse at the inoculation volume of 0.05 mL (about 1.5×10^6 cells)” for “Kunming mouse,”

[9] = tested on: Hela metastatic lymph nodes; experiment: Lymph node metastasis inhibition experiment; assay type: in vivo, nude mouse; settings: popliteal lymph nodes
Protocol: as §2, with “Cells growing in a log phase are collected,” for “Milky white and thick ascites is extracted from the H22 tumor-bearing mice,”, “concentration of the cell suspension” for “concentration”, “to” for “to be”, “the” for “0.05 mL of”, “suspension” for “suspension (about 1.5×10^6 cells)”, “nude mouse at the inoculation volume of 0.05 mL (about 1.5×10^6 cells)” for “Kunming mouse,”

[10] = tested on: MDA-MB-231 metastatic lymph nodes; experiment: Lymph node metastasis inhibition experiment; assay type: in vivo, nude mouse; settings: popliteal lymph nodes
Protocol: as §2, with “Cells growing in a log phase are collected,” for “Milky white and thick ascites is extracted from the H22 tumor-bearing mice,”, “concentration of the cell suspension” for “concentration”, “to” for “to be”, “the” for “0.05 mL of”, “suspension” for “suspension (about 1.5×10^6 cells)”, “nude mouse at the inoculation volume of 0.05 mL (about 1.5×10^6 cells)” for “Kunming mouse,”

[11] = tested on: SGC-7901 metastatic lymph nodes; experiment: Lymph node metastasis inhibition experiment; assay type: in vivo, nude mouse; settings: popliteal lymph nodes
Protocol: as §2, with “Cells growing in a log phase are collected,” for “Milky white and thick ascites is extracted from the H22 tumor-bearing mice,”, “concentration of the cell suspension” for “concentration”, “to” for “to be”, “the” for “0.05 mL of”, “suspension” for “suspension (about 1.5×10^6 cells)”, “nude mouse at the inoculation volume of 0.05 mL (about 1.5×10^6 cells)” for “Kunming mouse,”

[12] = tested on: SKOV3 metastatic lymph nodes; experiment: Lymph node metastasis inhibition experiment; assay type: in vivo, nude mouse; settings: popliteal lymph nodes
Protocol: as §2, with “Cells growing in a log phase are collected,” for “Milky white and thick ascites is extracted from the H22 tumor-bearing mice,”, “concentration of the cell suspension” for “concentration”, “to” for “to be”, “the” for “0.05 mL of”, “suspension” for “suspension (about 1.5×10^6 cells)”, “nude mouse at the inoculation volume of 0.05 mL (about 1.5×10^6 cells)” for “Kunming mouse,”

[13] = tested on: SMMC-7721 metastatic lymph nodes; experiment: Lymph node metastasis inhibition experiment; assay type: in vivo, nude mouse; settings: popliteal lymph nodes
Protocol: as §2, with “Cells growing in a log phase are collected,” for “Milky white and thick ascites is extracted from the H22 tumor-bearing mice,”, “concentration of the cell suspension” for “concentration”, “to” for “to be”, “the” for “0.05 mL of”, “suspension” for “suspension (about 1.5×10^6 cells)”, “nude mouse at the inoculation volume of 0.05 mL (about 1.5×10^6 cells)” for “Kunming mouse,”

[14] = tested on: TPC-1 metastatic lymph nodes; experiment: Lymph node metastasis inhibition experiment; assay type: in vivo, nude mouse; settings: popliteal lymph nodes
Protocol: as §2, with “Cells growing in a log phase are collected,” for “Milky white and thick ascites is extracted from the H22 tumor-bearing mice,”, “concentration of the cell suspension” for “concentration”, “to” for “to be”, “the” for “0.05 mL of”, “suspension” for “suspension (about 1.5×10^6 cells)”, “nude mouse at the inoculation volume of 0.05 mL (about 1.5×10^6 cells)” for “Kunming mouse,”

[15] = tested on: lymph node metastasis of 9 types of tumor cells; experiment: Lymph node metastasis inhibition experiment, summary; assay type: in vivo, mice
Protocol: as §2, with “Cells growing in a log phase are collected,” for “Milky white and thick ascites is extracted from the H22 tumor-bearing mice,”, “concentration of the cell suspension” for “concentration”, “to” for “to be”, “the” for “0.05 mL of”, “suspension” for “suspension (about 1.5×10^6 cells)”, “nude mouse at the inoculation volume of 0.05 mL (about 1.5×10^6 cells)” for “Kunming mouse,”
as §2

[16] = iron preparation alone 0.43 μg/mL
[17] = iron preparation alone 1.71 μg/mL
[18] = iron preparation alone 6.83 μg/mL
[19] = iron preparation alone 13.65 μg/mL

**Q.** Which results are given for ammonium ferric citrate?
**A.** Cell Survival Rate [1]: 100%; Cell Survival Rate [2, 16]: 100%; Cell Survival Rate [2, 17]: 98.43%; Cell Survival Rate [2, 18]: 94.19%; Cell Survival Rate [2, 19]: 100%; Cell Survival Rate [3, 16]: 97.30%; Cell Survival Rate [3, 17]: 96.41%; Cell Survival Rate [3, 18]: 100%; Cell Survival Rate [3, 19]: 100%; Cell Survival Rate [4, 16]: 96.21%; Cell Survival Rate [4, 17]: 97.64%; Cell Survival Rate [4, 18]: 95.12%; Cell Survival Rate [4, 19]: 100%; inhibition effect on growth of 9 types of tumors [5]: do not have an inhibition effect; Weight of Lymph Node [6]: 53.94 ± 11.58 mg; Weight of Lymph Node [7]: 45.67 ± 10.68 mg; Weight of Lymph Node [8]: 49.57 ± 20.67 mg; Weight of Lymph Node [9]: 30.94 ± 10.68 mg; Weight of Lymph Node [10]: 46.97 ± 10.36 mg; Weight of Lymph Node [11]: 43.69 ± 8.97 mg; Weight of Lymph Node [12]: 32.98 ± 6.42 mg; Weight of Lymph Node [13]: 56.98 ± 17.59 mg; Weight of Lymph Node [14]: 41.97 ± 20.12 mg; inhibition effect on the metastatic lymph nodes [15]: do not have an inhibition effect
